Source: patent EP4745134A1 (Jiangsu Yahong Meditech Co., Ltd., priority 2023, dated 2025)
Where two headings read alike, the source gives them in different places.

How the values were obtained:
HCT116 MTAP KO cells = experiment: Inhibitory activity against cell proliferation (CellTiter Glo, 6 days), HCT116 MTAP KO; assay type: cell-based; conditions: for IC50: HCT116 MTAP KO cells, 6 days, CellTiter Glo, read-out: HCT116 MTAP KO IC50; for Selectivity HCT 116-WT/ HCT116 MTAP KO: ratio of IC50 HCT116-WT / HCT116 MTAP KO
Experimental: (§1) HCT116-WT (ATCC, CCL-247) and HCT116 MTAP KO (Nanjing Cobioer, CBP75002) cells were seeded into white low-transparency sterile 96-well cell culture plates at a density of 250 cells per well respectively, and the culture medium was McCoy's 5A Medium+10% FBS. The plates were placed under the condition of 37°C and 5% CO2 to be cultured overnight. The cells were treated with 4-fold serially diluted compounds of 8 concentration points starting at an initial concentration of 10000 nM, and the last two columns were used as control wells to which only DMSO was added. The drug-treated cells were further cultured for 6 days. On day 7, CellTiter Glo® reagent was added at 50 uL per well, and after reaction under shaking for 10 minutes at room temperature, the chemiluminescence signals were detected for the well plates through the chemiluminescence detection method using a BIOTEK H1 multifunctional microplate-reader. The IC50 values for inhibition of the compounds on cell viability were calculated in X1fit 5.0 software. Table 2. IC50 values for inhibition of the compounds on HCT116 MTAP KO/WT cell growth

HCT116-WT cells = experiment: Inhibitory activity against cell proliferation (CellTiter Glo, 6 days), HCT116-WT; assay type: cell-based; conditions: 144 h, HCT116-WT cells, 6 days, CellTiter Glo; read-out: HCT116-WT IC50
Experimental: as §1

PRMT5-MTA = PRMT5-MTA (Homo sapiens, UniProt O14744); experiment: Enzymatic inhibitory activity against PRMT5-MTA (AlphaScreen); assay type: biochemical; conditions: read-out: IC50
Outline: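 PRMT5/[…] (1 nM) was preincubated for 30 min at room temperature with 1 µM […] and 2.5 µM SAM, then exposed to compound (10-point, 3-fold from 1000 nM) for 15 min at 23 °C. Histone H4 substrate (5 nM) was added and reacted for 45 min at 23 °C. Symmetric dimethyl-R3 H4 was detected by AlphaScreen and IC50 calculated.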

Sequence of PRMT5-MTA (O14744 whole entry): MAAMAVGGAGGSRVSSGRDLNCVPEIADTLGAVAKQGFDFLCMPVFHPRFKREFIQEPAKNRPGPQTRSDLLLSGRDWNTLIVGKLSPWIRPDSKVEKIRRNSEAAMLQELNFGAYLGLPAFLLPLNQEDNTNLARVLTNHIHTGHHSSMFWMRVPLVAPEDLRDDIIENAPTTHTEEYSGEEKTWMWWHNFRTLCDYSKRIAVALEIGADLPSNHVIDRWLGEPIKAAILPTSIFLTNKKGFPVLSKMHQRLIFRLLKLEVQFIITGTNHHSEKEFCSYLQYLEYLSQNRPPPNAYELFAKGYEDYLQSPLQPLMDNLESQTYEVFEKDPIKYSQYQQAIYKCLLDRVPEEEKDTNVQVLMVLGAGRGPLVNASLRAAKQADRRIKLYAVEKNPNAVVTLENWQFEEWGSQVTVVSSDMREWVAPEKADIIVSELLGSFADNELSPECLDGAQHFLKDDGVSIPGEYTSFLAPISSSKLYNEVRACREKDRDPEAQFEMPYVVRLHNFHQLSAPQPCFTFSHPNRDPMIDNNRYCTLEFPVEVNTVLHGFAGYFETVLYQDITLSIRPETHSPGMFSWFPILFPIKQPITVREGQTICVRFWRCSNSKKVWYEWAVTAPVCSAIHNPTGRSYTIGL
Sequence of PRMT5-MTA (Q9BQA1 whole entry partner): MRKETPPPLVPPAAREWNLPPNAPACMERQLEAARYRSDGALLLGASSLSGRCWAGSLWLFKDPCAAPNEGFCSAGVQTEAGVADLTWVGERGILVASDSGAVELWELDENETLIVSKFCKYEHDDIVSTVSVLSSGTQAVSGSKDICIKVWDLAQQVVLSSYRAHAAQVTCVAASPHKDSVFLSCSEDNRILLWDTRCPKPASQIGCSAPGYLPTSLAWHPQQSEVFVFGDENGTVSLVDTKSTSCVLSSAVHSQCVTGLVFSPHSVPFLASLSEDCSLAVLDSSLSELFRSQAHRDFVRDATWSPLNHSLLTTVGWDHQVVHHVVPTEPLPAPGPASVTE

| SMILES | IC50 (HCT116 MTAP KO cells; Homo sapiens, HCT-116, 144 h) [nM] | Selectivity HCT 116-WT/ HCT116 MTAP KO (HCT116 MTAP KO cells) | IC50 (HCT116-WT cells) [nM] | IC50 (PRMT5-MTA) [nM] | IC50 (HCT116 MTAP KO cells) [nM] |
| --- | --- | --- | --- | --- | --- |
| CC1CN(C(=O)c2cc3c(cc2F)nc(N)c2cnn(C)c23)N(c2ncccc2F)C1 (single isomer, unassigned) [Example 467] | 94 | 32.33 | 3040 | – | – |
| Cc1cc2cc(C(=O)N(Cc3ccc(-c4ccc(N(C)C5CCC5)nc4)cn3)N(C)c3ncccn3)ccc2nc1N [Compound 261, 2-amino-N-((6'-(cyclobutyl(methyl)amino)-[3,3'-bipyridin]-6-yl)methyl)-N',3-dim ethyl-N'-(pyrimidin-2-yl)quinoline-6-carb ohydrazide] | 40 | 17.10 | 684 | – | – |
| Cc1cc2cc(C(=O)N(Cc3ccc(C(F)(F)F)cn3)n3ccc4ccccc43)ccc2nc1N [Example 28, 2-amino-N-(1H-indol-1-yl)-3-methyl-N-((5-(trifluoromethyl)pyridin-2-yl)methyl)quinoline-6-carboxamide] | 139 | 18.22 | 2530 | – | – |
| CC1OCc2c1c(N)nc1ccc(C(=O)N(Cc3ccc(C(F)(F)F)cn3)N(C)c3ncccn3)cc21 (stereo not drawn) [Example 70, 4-amino-N',3-dimethyl-N'-(pyrimidin-2-yl)-N-((5-(trifluoromethyl)pyridin-2-yl)methyl)-1,3-dihydrofuro[3,4-c]quinoline-8-carbohydrazide] | 21 | 10.57 | 222 | – | – |
| CN(c1ncccc1F)N(Cc1ccc(C(F)(F)F)cn1)C(=O)c1ccc2nc(N)c3cnn(C)c3c2c1 [Example 74, 4-amino-N'-(3-fluoropyridin-2-yl)-N ',1-dimethyl-N-((5-(trifluoromethyl)pyridin-2-yl)methyl)-1H-pyrazolo[4,3-c]quinoline-8-carbohydrazide] | 4.4 | 20.45 | 90 | – | – |
| CN(c1ncccn1)N(Cc1ccc(C(F)(F)F)cn1)C(=O)c1ccc2nc(N)c(Cl)cc2c1 [Example 105, 2-amino-3-chloro-N'-methyl-N'-(pyrimidin-2-yl)-N-((5-(trifluoromethyl)pyridin-2-yl)methyl)quinoline-6-carbohydrazide] | 202 | 19.56 | 3950 | – | – |
| Cc1cc2cc(C(=O)N(Cc3ccc(-c4cc[nH]c(=O)c4)cn3)N(C)c3ncccn3)ccc2nc1N [Example 138, 2-amino-N',3-dimethyl-N-((2'-oxo-1',2'-dihydro-[3,4'-bipyridine]-6-yl)methyl)-N'-(pyrimidin-2-yl)quinoline-6-carbohydrazide] | 290 | 11.79 | 3420 | – | – |
| Cc1cc2cc(C(=O)N(Cc3ccc(-c4ccc(=O)[nH]c4)cn3)N(C)c3ncccn3)ccc2nc1N [Example 143, 2-amino-N',3-dimethyl-N-((6'-oxo-1',6'-dihydro-[3,3'-bipyridine]-6-yl)methyl)-N'-(pyrimidin-2-yl)quinoline-6-carbohydrazide] | 192 | 17.49 | 3360 | – | – |
| Cc1csc(-c2ccc(CN(C(=O)c3ccc4nc(N)c(C)cc4c3)N(C)c3ncccn3)nc2)c1 [Example 146, 2-amino-N',3-dimethyl-N-((5-(4-methylthien-2-yl)pyridin-2-yl)methyl)-N'-(pyrimidin-2-yl)quinoline-6-carbohydrazide] | 75 | 15.85 | 1190 | – | – |
| Cc1cc2cc(C(=O)N(Cc3ccc(-c4cnc5nn(C)cc5c4)cn3)N(C)c3ncccn3)ccc2nc1N [Example 150, 2-amino-N',3-dimethyl-N-((5-(2-methyl-2H-pyrazolo[3,4-b]pyridin-5-yl)pyridin-2-yl)methyl)-N'-(pyrimidin-2-yl)quinoline-6-carbohydrazide] | 29 | 24.41 | 708 | – | – |
| Cc1cc2cc(C(=O)N(Cc3ccc(-c4cnn(C(F)(F)F)c4)cn3)N(C)c3ncccc3F)ccc2nc1N [Example 170, 2-amino-N'-(3-fluoropyridin-2-yl)-N ',3-dimethyl-N-((5-(1-(trifluoromethyl)-1 H-pyrazol-4-yl)pyridin-2-yl)methyl)quin oline-6-carbohydrazide] | 35 | 18.29 | 640 | – | – |
| Cc1cc2cc(C(=O)N(Cc3ccc(-c4cnoc4)cn3)N(C)c3ncccn3)ccc2nc1N [Example 182, 2-amino-N-((5-(isoxazol-4-yl)pyridin-2-yl)methyl)-N',3-dimethyl-N'-(pyrimidin-2-yl)quinoline-6-carbohydrazide] | 131 | 25.89 | 3390 | – | – |
| Cc1cc2cc(C(=O)N(Cc3ccc(-c4cnc5c(cnn5C)c4)cn3)N(C)c3ncccn3)ccc2nc1N [Example 190, 2-amino-N',3-dimethyl-N-((5-(1-methyl-1H-pyrazolo[3,4-b]pyridin-5-yl)pyridin-2-yl)methyl)-N'-(pyrimidin-2-yl)quinoline-6-carbohydrazide] | 32 | 26.09 | 835 | – | – |
| Cc1cc2nc(N)c3cnn(C)c3c2cc1C(=O)N1CCCN1c1ccc(C(F)(F)F)nc1 [Example 329, (4-amino-1,7-dimethyl-1H-pyrazolo[4,3-c]quinolin-8-yl)(2-(6-(trifluoromethyl)pyridin-3-yl)pyrazolidin-1-yl)methanone] | 831 | – | – | 3.4 | – |
| Cc1cc2nc(N)c3cnn(C)c3c2cc1C(=O)N1CCCN1c1ncccn1 [Example 332, (4-amino-1,7-dimethyl-1H-pyrazolo[4,3-c]quinolin-8-yl)(2-(pyrimidin-2-yl)pyrazolidin-1-yl)methanone] | 405 | – | – | 6 | – |
| Nc1nc2ccc(C(=O)N3CCCN3c3ccc(C(F)(F)F)cn3)cc2c2c1COC2 [Example 341, (4-amino-1,3-dihydrofuro[3,4-c]quinolin-8-yl)(2-(5-(trifluoromethyl)pyridin-2-yl)pyrazolidin-1-yl)methanone] | > 10000 | – | – | 4.7 | – |
| Cc1cc2nc(N)c3cnn(C)c3c2cc1C(=O)N1CCCN1c1ccc(F)cn1 [Example 344, (4-amino-1,7-dimethyl-1H-pyrazolo[4,3-c]quinolin-8-yl)(2-(5-fluoropyridin-2-yl)pyrazolidin-1-yl)methanone] | 458 | – | – | 4.7 | – |
| Cc1cc2nc(N)c3cnn(C)c3c2cc1C(=O)N1CCCN1c1ccccn1 [Example 349, (4-amino-1,7-dimethyl-1H-pyrazolo[4,3-c]quinolin-8-yl)(2-(pyridin-2-yl)pyrazolidin-1-yl)methanone] | 458 | – | – | 6.1 | – |
| Cc1cc2nc(N)c3cnn(C)c3c2cc1C(=O)N1C(C)CCN1c1ncccc1F (stereo not drawn) [Example 375, (4-amino-1,7-dimethyl-1H-pyrazolo[4,3-c]quinolin-8-yl)(2-(3-fluoropyridin-2-yl)-5-methylpyrazolidin-1-yl)methanone] | – | – | – | 2.5 | 280 |
| Cc1cc2nc(N)c3c(cnn3C)c2cc1C(=O)N1CCCN1c1ncccc1F [Example 501, (4-amino-3,7-dimethyl-3H-pyrazolo[3,4-c]quinolin-8-yl)(2-(3-fluoropyridin-2-yl)pyrazolidin-1-yl)methanone] | – | – | – | 4.4 | – |
| CCn1ncc2c(N)nc3cc(C)c(C(=O)N4CC(C)CN4c4ncccc4F)cc3c21 (stereo not drawn) [Example 503, (4-amino-1-ethyl-7-methyl-1H-pyrazolo[4,3-c]quinolin-8-yl)(2-(3-fluoropyridin-2-yl)-4-methylpyrazolidin-1-yl)methanone] | – | – | – | 5.2 | – |
| Cc1cc2nc(N)c3c(cnn3C)c2cc1C(=O)N1CC(C)CN1c1ncccc1F (stereo not drawn) [Example 504, (4-amino-3,7-dimethyl-3H-pyrazolo[3,4-c]quinolin-8-yl)(2-(3-fluoropyridin-2-yl)-4-methylpyrazolidin-1-yl)methanone] | – | – | – | 8.6 | – |
| Cn1ncc2c(N)nc3cc(C(F)(F)F)c(C(=O)N4CCCN4c4ccc(C(F)(F)F)cn4)cc3c21 [Example 505, (4-amino-1-methyl-7-trifluoromethyl-1H-pyrazolo[4,3-c]quinolin-8-yl)(2-(5-(trifluoromethyl)pyridin-2-yl)pyrazolidin-1-yl) methanone] | – | – | – | 3 | – |
| Cc1cc2nc(N)c3cnccc3c2cc1C(=O)N1CC(C)CN1c1ncccc1F (stereo not drawn) [Example 506, (5-amino-8-methylbenzo[C] [2,7]naphthyridin-9-yl)(2-(3-fluoropyridin-2-yl)-4-methylpyrazolidin-1-yl)methanone] | – | – | – | 5.8 | – |
| CC1CN(C(=O)c2cc3c4c(c(N)nc3cn2)COC4)N(c2ncccc2F)C1 (stereo not drawn) [Example 511, (4-amino-1,3-dihydrofuro[3,4-c][1,7]naphthyridin-8-yl)(2-(3-fluoropyridin-2-yl)-4-methylpyrazolidin-1-yl)methanone] | – | – | – | 6.1 | – |
